Assay results reported in article PMC2119337 (The Journal of Experimental Medicine, 1992).
No end group written: not given here.

Assays:
[1] = system: (PL/J x SJL/J)F1 mice; type: in vivo; conditions: Table 1, observed 30-35 d, three experiments
[2] = biological target: T1, A alpha uA beta u (MHC class II molecules) (Mus musculus, UniProt P06344+P14438); conditions: cited from earlier work
T1 sequence (P14438 1-227): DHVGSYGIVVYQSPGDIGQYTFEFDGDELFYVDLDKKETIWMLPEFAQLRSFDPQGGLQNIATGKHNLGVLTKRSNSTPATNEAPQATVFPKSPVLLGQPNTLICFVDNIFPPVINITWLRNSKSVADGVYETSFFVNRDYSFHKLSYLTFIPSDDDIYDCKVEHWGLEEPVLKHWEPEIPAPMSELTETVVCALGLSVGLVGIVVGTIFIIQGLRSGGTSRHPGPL
T1 sequence (P06344 28-263): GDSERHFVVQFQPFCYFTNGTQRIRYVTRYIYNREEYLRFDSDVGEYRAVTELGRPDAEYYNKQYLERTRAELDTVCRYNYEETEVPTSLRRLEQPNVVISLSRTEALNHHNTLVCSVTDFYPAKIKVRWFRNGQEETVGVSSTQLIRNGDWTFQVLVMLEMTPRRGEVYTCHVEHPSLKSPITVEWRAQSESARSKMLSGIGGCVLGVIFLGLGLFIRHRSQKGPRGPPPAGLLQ

[3] = system: (PL/J x SJL/J)F1 mice; assay: Inhibition of EAE by coimmunization of competitor peptide with Ac1-11; type: in vivo; conditions: Table 2, Ac1-11 25 nmol alone or with competitor 500 nmol

Ac1-11: immunodominant N-terminal myelin basic protein (MBP) peptide, wild type (Ac-MGNHSGKRELS; UniProt P04370 1-11, looked up, fragment)
Incidence of EAE (mice with disease/total) ([1]; 100 nmol peptide in CFA s.c.): 27/31 | Percent incidence of EAE ([1]; […]): 87% | Binding to AαuAβu [2]: poor binder | Day of onset [3]: 12.75 | Mean clinical scores ([3]; grades 1-5): 3.4
